Measurements from US7371766B2, “Curcumin analogs with anti-tumor and anti-angiogenic properties” (Emory University, priority 1999, dated 2008).

How the values were obtained:
LOX IMVI = experiment: cells; conditions: Homo sapiens, 48 h; for GI50: read-out: Median Growth Inhibitory Concentration (GI50)
T-47D = experiment: cells; conditions: Homo sapiens, T47D, 48 h; for GI50: read-out: Median Growth Inhibitory Concentration (GI50); for CC50: read-out: Median Lethal Concentration (LC50)
K-562 = experiment: cells; conditions: Homo sapiens, K562, 48 h; for GI50: read-out: Median Growth Inhibitory Concentration (GI50); for CC50: read-out: Median Lethal Concentration (LC50)
SW-620 = experiment: cells; conditions: Homo sapiens, SW-620, 48 h; for GI50: read-out: Median Growth Inhibitory Concentration (GI50); for CC50: read-out: Median Lethal Concentration (LC50)
[1] = tested on: Vascular Endothelial Growth Factor (VEGF) production by human melanoma cell line RPMI-7951; experiment: VEGF ELISA, RPMI-7951; conditions: for VEGF ELISA / VEGF: RPMI-7951; for VEGF ELISA: DMSO control 3713
HL-60 (TB) = experiment: cells; conditions: Homo sapiens, HL-60, 48 h; for GI50: read-out: Median Growth Inhibitory Concentration (GI50); for CC50: read-out: Median Lethal Concentration (LC50)
RXF 393 = experiment: cells; conditions: Homo sapiens, RXF 393, 48 h; for GI50: read-out: Median Growth Inhibitory Concentration (GI50); for CC50: read-out: Median Lethal Concentration (LC50)
A498 = experiment: cells; conditions: Homo sapiens, A498, 48 h; for GI50: read-out: Median Growth Inhibitory Concentration (GI50); for CC50: read-out: Median Lethal Concentration (LC50)
SN12C = experiment: cells; conditions: Homo sapiens, 48 h; for GI50: read-out: Median Growth Inhibitory Concentration (GI50); for CC50: read-out: Median Lethal Concentration (LC50)
UACC-62 = experiment: cells; conditions: Homo sapiens, UACC-62, 48 h; for GI50: read-out: Median Growth Inhibitory Concentration (GI50); for CC50: read-out: Median Lethal Concentration (LC50)
786-0 = experiment: cells; conditions: Homo sapiens, 786-0, 48 h; for GI50: read-out: Median Growth Inhibitory Concentration (GI50); for CC50: read-out: Median Lethal Concentration (LC50)
SF-539 = experiment: cells; conditions: Homo sapiens, SF-539, 48 h; for GI50: read-out: Median Growth Inhibitory Concentration (GI50); for CC50: read-out: Median Lethal Concentration (LC50)
NCI-H460 = experiment: cells; conditions: Homo sapiens, NCI-H460, 48 h; for GI50: read-out: Median Growth Inhibitory Concentration (GI50); for CC50: read-out: Median Lethal Concentration (LC50)
ACHN = experiment: cells; conditions: Homo sapiens, 48 h; for GI50: read-out: Median Growth Inhibitory Concentration (GI50); for CC50: read-out: Median Lethal Concentration (LC50)
UO-31 = experiment: cells; conditions: Homo sapiens, UO-31, 48 h; for GI50: read-out: Median Growth Inhibitory Concentration (GI50); for CC50: read-out: Median Lethal Concentration (LC50)
OVCAR-4 = experiment: cells; conditions: Homo sapiens, OVCAR-4, 48 h; for GI50: read-out: Median Growth Inhibitory Concentration (GI50); for CC50: read-out: Median Lethal Concentration (LC50)
MCF-7 = experiment: cells; conditions: Homo sapiens, MCF7, 48 h; for GI50: read-out: Median Growth Inhibitory Concentration (GI50); for CC50: read-out: Median Lethal Concentration (LC50)
RPMI-8226 = experiment: cells; conditions: Homo sapiens, RPMI-8226, 48 h; for GI50: read-out: Median Growth Inhibitory Concentration (GI50)
[2] = tested on: Sixty human tumor cell lines; experiment: cells; conditions: 48 h; for GI50: read-out: Median Growth Inhibitory Concentration (GI50), Mean; for CC50: read-out: Median Lethal Concentration (LC50), Mean
KM12 = experiment: cells; conditions: Homo sapiens, KM12, 48 h; for GI50: read-out: Median Growth Inhibitory Concentration (GI50); for CC50: read-out: Median Lethal Concentration (LC50)
SF-268 = experiment: cells; conditions: Homo sapiens, SF-268, 48 h; for GI50: read-out: Median Growth Inhibitory Concentration (GI50); for CC50: read-out: Median Lethal Concentration (LC50)
SK-MEL-28 = experiment: cells; conditions: Homo sapiens, SK-MEL-28, 48 h; for GI50: read-out: Median Growth Inhibitory Concentration (GI50); for CC50: read-out: Median Lethal Concentration (LC50)
CAKI-1 = experiment: cells; conditions: Homo sapiens, CAKI-1, 48 h; for GI50: read-out: Median Growth Inhibitory Concentration (GI50); for CC50: read-out: Median Lethal Concentration (LC50)
HS 578T = experiment: cells; conditions: Homo sapiens, 48 h; for GI50: read-out: Median Growth Inhibitory Concentration (GI50); for CC50: read-out: Median Lethal Concentration (LC50)
NCI-H226 = experiment: cells; conditions: Homo sapiens, NCI-H226, 48 h; for GI50: read-out: Median Growth Inhibitory Concentration (GI50); for CC50: read-out: Median Lethal Concentration (LC50)
SK-MEL-5 = experiment: cells; conditions: Homo sapiens, SK-MEL-5, 48 h; for GI50: read-out: Median Growth Inhibitory Concentration (GI50)
EKVX = experiment: cells; conditions: Homo sapiens, 48 h; for GI50: read-out: Median Growth Inhibitory Concentration (GI50); for CC50: read-out: Median Lethal Concentration (LC50)
COLO 205 = experiment: cells; conditions: Homo sapiens, COLO 205, 48 h; for GI50: read-out: Median Growth Inhibitory Concentration (GI50); for CC50: read-out: Median Lethal Concentration (LC50)
MDA-MB-231 = experiment: cells; conditions: Homo sapiens, MDA-MB-231, 48 h; for GI50: read-out: Median Growth Inhibitory Concentration (GI50); for CC50: read-out: Median Lethal Concentration (LC50)
[3] = read-out: Median Lethal Concentration (LC50)
[4] = Homo sapiens, RPMI-7951, 72 h, read-out: VEGF

SMILES: CC1(/C=C/c2ccccc2O)C=Cc2ccccc2O1 (centres unmarked) [EF7]
- GI50 (LOX IMVI): 17.2 µM
- CC50 (LOX IMVI; [3]): 73.4 µM
- GI50 (T-47D): 7.7 µM
- CC50 (T-47D): 55.4 µM
- GI50 (K-562): 14.9 µM
- CC50 (K-562): 70.7 µM
- GI50 (SW-620): 16.2 µM
- CC50 (SW-620): 65.9 µM
- activity at 20 µM [1, 4]: 27%
- GI50 (HL-60 (TB)): 17.7 µM
- CC50 (HL-60 (TB)): 76 µM
- GI50 (RXF 393): 11 µM
- CC50 (RXF 393): 49.2 µM
- GI50 (A498): 17.2 µM
- CC50 (A498): 55.6 µM
- GI50 (SN12C): 15.2 µM
- CC50 (SN12C): 54.4 µM
- GI50 (UACC-62): 12.2 µM
- CC50 (UACC-62): 49.6 µM
- GI50 (786-0): 16.4 µM
- CC50 (786-0): 54.8 µM
- GI50 (SF-539): 17.3 µM
- CC50 (SF-539): 55.7 µM
- GI50 (NCI-H460): 17.6 µM
- CC50 (NCI-H460): 66.8 µM
- GI50 (ACHN): 15.7 µM
- CC50 (ACHN): 54 µM
- GI50 (UO-31): 13.5 µM
- CC50 (UO-31): 51.3 µM
- GI50 (OVCAR-4): 14.1 µM
- CC50 (OVCAR-4): 53.1 µM
- GI50 (MCF-7): 18 µM
- CC50 (MCF-7): 65.9 µM
- GI50 (RPMI-8226): 14.8 µM
- CC50 (RPMI-8226; [3]): 92.7 µM
- GI50 [2]: 15.8 µM
- CC50 [2]: 61.7 µM
- GI50 (KM12): 17.1 µM
- CC50 (KM12): 55.5 µM
- GI50 (SF-268): 19.8 µM
- CC50 (SF-268): > 100 µM
- GI50 (SK-MEL-28): 17.4 µM
- CC50 (SK-MEL-28): 62.9 µM
- GI50 (CAKI-1): 14.3 µM
- CC50 (CAKI-1): 52.3 µM
- GI50 (HS 578T): 22.4 µM
- CC50 (HS 578T): > 100 µM
- GI50 (NCI-H226): 18.7 µM
- CC50 (NCI-H226): 78.8 µM
- GI50 (SK-MEL-5): 15.5 µM
- CC50 (SK-MEL-5; [3]): 53.7 µM
- GI50 (EKVX): 17.3 µM
- CC50 (EKVX): 56.6 µM
- GI50 (COLO 205): 17.5 µM
- CC50 (COLO 205): 55.9 µM
- GI50 (MDA-MB-231): 19.8 µM
- CC50 (MDA-MB-231): 74.6 µM

SMILES: O=C1C(=Cc2ccccc2O)CCCC1=Cc1ccccc1O [EF4, 2,6Bis(2-hydroxybenzylidene)cyclohexanone]
- GI50 (LOX IMVI): 2.2 µM
- GI50 (T-47D): 1.7 µM
- CC50 (T-47D): 50.8 µM
- GI50 (K-562): 2.5 µM
- CC50 (K-562): 91.4 µM
- GI50 (SW-620): 2.7 µM
- CC50 (SW-620): 76.3 µM
- activity at 5 µM [1, 4]: 70%
- activity at 20 µM [1, 4]: 0%
- VEGF ELISA ([1]; 5 μM): 2159 pg/ml/well
- VEGF ([1]; 5 μM, DMSO control 4197 (EF-25: 1045)): 2920 pg/mL
- VEGF ELISA ([1]; 20 μM): 199 pg/ml/well
- VEGF ([1]; 20 μM, DMSO control 4197): 0 pg/mL
- GI50 (HL-60 (TB)): 1.9 µM
- CC50 (HL-60 (TB)): 53.5 µM
- GI50 (RXF 393): 0.5 µM
- CC50 (RXF 393): 30.8 µM
- GI50 (A498): 2.2 µM
- CC50 (A498): 16.2 µM
- GI50 (SN12C): 2.3 µM
- CC50 (SN12C): 21.5 µM
- GI50 (UACC-62): 1.5 µM
- CC50 (UACC-62): 6.1 µM
- GI50 (786-0): 2.3 µM
- CC50 (786-0): 15.9 µM
- GI50 (SF-539): 2 µM
- CC50 (SF-539): 24.7 µM
- GI50 (NCI-H460): 2.3 µM
- CC50 (NCI-H460): 40.2 µM
- GI50 (ACHN): 3.3 µM
- CC50 (ACHN): 32.7 µM
- GI50 (UO-31): 1.6 µM
- CC50 (UO-31): 6.2 µM
- GI50 (OVCAR-4): 2.5 µM
- CC50 (OVCAR-4): 18.4 µM
- GI50 (MCF-7): 2.7 µM
- CC50 (MCF-7): 44.1 µM
- GI50 (RPMI-8226): 0.6 µM
- GI50 [2]: 2.4 µM
- CC50 [2]: 33.9 µM
- GI50 (KM12): 1.6 µM
- CC50 (KM12): 6.5 µM
- GI50 (SF-268): 3 µM
- CC50 (SF-268): 53.2 µM
- GI50 (SK-MEL-28): 2.9 µM
- CC50 (SK-MEL-28): 33.8 µM
- GI50 (CAKI-1): 3.1 µM
- CC50 (CAKI-1): > 100 µM
- GI50 (HS 578T): 5.1 µM
- CC50 (HS 578T): > 100 µM
- GI50 (NCI-H226): 19 µM
- CC50 (NCI-H226): > 100 µM
- GI50 (SK-MEL-5): 1.6 µM
- GI50 (EKVX): 2.3 µM
- CC50 (EKVX): 37.2 µM
- GI50 (COLO 205): 2 µM
- CC50 (COLO 205): 8.7 µM
- GI50 (MDA-MB-231): 3.5 µM
- CC50 (MDA-MB-231): > 100 µM
